{"source": "patent US20110009266A1", "about": "“Herbicidal Compositions Comprising Pyroxasulfone” (BASF SE, priority 2008, published 2011)", "type_in_all_cases": "in vivo", "key": {"[1]": {"test_system": "GALAP (Galium aparine, cleaver)", "assay": "greenhouse herbicidal activity on Galium aparine", "conditions": "Post-Emergence, 20 DAT", "text": "(§1) For the post-emergence treatment, the test plants were first grown to a height of 3 to 20 cm, depending on the plant habit, and only then treated. Here, the herbicidal compositions were suspended or emulsified in water as distribution medium and sprayed using finely distributing nozzles.\n(§2) The respective herbicides A and/or safener were formulated as 10% by weight strength suspension concentrate and introduced to the spray liquor with the amount of solvent system used for applying the active compound. Herbicide B and/or safener were used as commercially available formulations and introduced to the spray liquor with the amount of solvent system used for applying the active compound. In the examples, the solvent used was water.\n(§3) 4-(3-trifluoromethylphenoxy)-2-(4-trifluoromethylphenyl)-pyrimidine was used as an aqueous suspension concentrate having an active ingredient concentration of 200 g/l.\n(§4) The test period extended over 21 days. During this time, the plants were tended, and their response to the treatments with active compound was evaluated.\n(§5) The evaluation for the damage caused by the chemical compositions was carried out using a scale from 0 to 100%, compared to the untreated control plants. Here, 0 means no damage and 100 means complete destruction of the plants.\n(§6) The value E, which is to be expected if the activity of the individual compounds is just additive, was calculated using the method of S. R. Colby (1967) “Calculating synergistic and antagonistic responses of herbicide combinations”, Weeds 15, p. 22 ff.\n(§7) where X=effect in percent using herbicide A at an application rate a; • Y=effect in percent using herbicide B at an application rate b; • E=expected effect (in %) of A+B at application rates a+b.\n(§8) If the value observed in this manner is higher than the value E calculated according to Colby, a synergistic effect is present."}, "[2]": {"test_system": "STEME (Stellaria media, chickweed)", "assay": "greenhouse herbicidal activity on Stellaria media", "conditions": "Post-Emergence; for inhibition at 50 g/ha: Stellaria media", "text": "as §1, §2\n(§9) Picolinafen was used as a commercial wettable granule formulation having an active ingredient content of 75% by weight.\nas §3, §4, §5, §6, §7, §8"}, "[3]": {"test_system": "LOLMU (Lolium multiflorum, italian ryegrass)", "assay": "greenhouse herbicidal activity on Lolium multiflorum", "conditions": "Post-Emergence; for inhibition at 13 g/ha / inhibition at 50 g/ha: Lolium multiflorum; for inhibition at 50 g/ha: 50 g ai/ha", "text": "as §1, §2, §9, §3, §4, §5, §6, §7, §8"}, "[4]": {"test_system": "ALOMY (Alopecurus myosuroides, blackgrass)", "assay": "greenhouse herbicidal activity on Alopecurus myosuroides", "conditions": "Post-Emergence, 20 DAT", "text": "as §1\nas §2, with “water. […]” for “water.”\n(§10) The test period extended over 21 days. During this time, the plants were tended, and their response to the treatments with active compound was evaluated. […]\n(§11) The value E, which is to be expected if the activity of the individual compounds is just additive, was calculated using the method of S. R. Colby (1967) “Calculating synergistic and antagonistic responses of herbicide combinations”, Weeds 15, p. […]\nas §8"}, "[5]": {"test_system": "VERPE (Veronica persica, field speedwell)", "assay": "greenhouse herbicidal activity on Veronica persica", "conditions": "Post-Emergence, 20 DAT", "text": "as §1\nas §2, with “water. […]” for “water.”\nas §10, §11, §8"}, "[6]": {"test_system": "PHACA (Phalaris canariensis, canarygrass)", "assay": "greenhouse herbicidal activity on Phalaris canariensis", "conditions": "Post-Emergence; for inhibition at 50 g/ha / inhibition at 100 g/ha: Phalaris canariensis; for inhibition at 50 g/ha: 50 g ai/ha; for inhibition at 100 g/ha: 100 g ai/ha", "text": "as §1, §2, §9, §4, §5, §6, §7, §8"}, "[7]": {"conditions": "192 h, 8 DAT, read-out: observed % activity 8 DAT"}, "[8]": {"conditions": "480 h, 20 DAT, read-out: observed % activity 20 DAT"}}, "note": "Like-named read-outs stand apart in the source and are kept apart here."}
{"smiles": "FC(F)(F)c1ccc(-c2nccc(Oc3cccc(C(F)(F)F)c3)n2)cc1", "note": "[Compound B, 4-(3-trifluoromethylphenoxy)-2-(4-trifluoromethylphenyl)-pyrimidine]", "values": [{"measurement": "observed activity in % destruction 20 days after treatment", "setting": "[1]; 31 g ai/ha", "result": 85, "unit": "%"}, {"measurement": "observed activity in % destruction 20 days after treatment", "setting": "[1]; 63 g ai/ha", "result": 85, "unit": "%"}, {"measurement": "observed activity in % destruction 20 days after treatment", "setting": "[2]; 16 g ai/ha, 20 DAT", "result": 95, "unit": "%"}, {"measurement": "observed activity in % destruction 20 days after treatment", "setting": "[2]; 31 g ai/ha, 20 DAT", "result": 95, "unit": "%"}, {"measurement": "observed activity in % destruction 20 days after treatment", "setting": "[3]; 63 g ai/ha, 20 DAT", "result": 50, "unit": "%"}, {"measurement": "observed activity in % destruction 20 days after treatment", "setting": "[3]; 125 g ai/ha, 20 DAT", "result": 70, "unit": "%"}, {"measurement": "observed activity in % destruction 20 days after treatment", "setting": "[4]; 16 g ai/ha", "result": 15, "unit": "%"}, {"measurement": "observed activity in % destruction 20 days after treatment", "setting": "[5]; 31 g ai/ha", "result": 98, "unit": "%"}]}
{"smiles": "O=C(Nc1ccc(F)cc1)c1cccc(Oc2cccc(C(F)(F)F)c2)n1", "note": "[picolinafen]", "values": [{"measurement": "observed % activity 8 DAT", "setting": "[6]; 13 g ai/ha, 8 DAT", "result": 10, "unit": "%"}, {"measurement": "observed % activity 20 DAT", "setting": "[6]; 13 g ai/ha, 20 DAT", "result": 30, "unit": "%"}, {"measurement": "observed % activity 8 DAT", "setting": "[2]; 13 g ai/ha, 8 DAT", "result": 60, "unit": "%"}, {"measurement": "observed % activity 20 DAT", "setting": "[2]; 13 g ai/ha, 20 DAT", "result": 90, "unit": "%"}, {"measurement": "observed % activity 8 DAT", "setting": "[3]; 25 g ai/ha, 8 DAT", "result": 0, "unit": "%"}, {"measurement": "observed % activity 20 DAT", "setting": "[3]; 25 g ai/ha, 20 DAT", "result": 20, "unit": "%"}]}
{"smiles": "Cn1nc(C(F)(F)F)c(CS(=O)(=O)C2=NOC(C)(C)C2)c1OC(F)F", "note": "[pyroxasulfone, 3-[5-(difluoromethoxy)-1-methyl-3-(trifluoromethyl)pyrazol-4-ylmethylsulfonyl]-4,5-dihydro-5,5-dimethyl-1,2-oxazole]", "values": [{"measurement": "observed activity in % destruction 20 days after treatment", "setting": "[1]; 25 g ai/ha", "result": 90, "unit": "%"}, {"measurement": "observed activity in % destruction 20 days after treatment", "setting": "[1]; 50 g ai/ha", "result": 90, "unit": "%"}, {"measurement": "observed activity in % destruction 20 days after treatment", "setting": "[1]; 100 g ai/ha", "result": 95, "unit": "%"}, {"measurement": "inhibition at 50 g/ha", "setting": "[6]; [7]", "result": 55, "unit": "%"}, {"measurement": "inhibition at 100 g/ha", "setting": "[6]; [7]", "result": 60, "unit": "%"}, {"measurement": "inhibition at 50 g/ha", "setting": "[6]; [8]", "result": 90, "unit": "%"}, {"measurement": "inhibition at 100 g/ha", "setting": "[6]; [8]", "result": 90, "unit": "%"}, {"measurement": "observed activity in % destruction 20 days after treatment", "setting": "[2]; 25 g ai/ha, 20 DAT", "result": 80, "unit": "%"}, {"measurement": "observed activity in % destruction 20 days after treatment", "setting": "[2]; 50 g ai/ha, 20 DAT (Table 2)", "result": 85, "unit": "%"}, {"measurement": "inhibition at 50 g/ha", "setting": "[2]; 192 h, 50 g ai/ha, 8 DAT, read-out: observed % activity 8 DAT", "result": 70, "unit": "%"}, {"measurement": "inhibition at 50 g/ha", "setting": "[2]; 480 h, 50 g ai/ha, 20 DAT, read-out: observed % activity 20 DAT", "result": 85, "unit": "%"}, {"measurement": "inhibition at 13 g/ha", "setting": "[3]; 192 h, 13 g ai/ha, 8 DAT, read-out: observed % activity 8 DAT", "result": 40, "unit": "%"}, {"measurement": "inhibition at 50 g/ha", "setting": "[3]; [7]", "result": 50, "unit": "%"}, {"measurement": "inhibition at 13 g/ha", "setting": "[3]; 480 h, 13 g ai/ha, 20 DAT, read-out: observed % activity 20 DAT", "result": 50, "unit": "%"}, {"measurement": "inhibition at 50 g/ha", "setting": "[3]; [8]", "result": 85, "unit": "%"}, {"measurement": "observed activity in % destruction 20 days after treatment", "setting": "[3]; 13 g ai/ha, 20 DAT (Table 2)", "result": 50, "unit": "%"}, {"measurement": "observed activity in % destruction 20 days after treatment", "setting": "[3]; 25 g ai/ha, 20 DAT (Table 2)", "result": 75, "unit": "%"}, {"measurement": "observed activity in % destruction 20 days after treatment", "setting": "[4]; 100 g ai/ha", "result": 90, "unit": "%"}, {"measurement": "observed activity in % destruction 20 days after treatment", "setting": "[5]; 25 g ai/ha", "result": 60, "unit": "%"}]}
